Measurements from PubChem BioAssay AID330 (DTP/NCI, 2004).
Several values for one entry are separate records, joined by “and”; a condition that tells them apart may be missing. Equal values may be shown once. Toxic doses and inconclusive results are not listed.

Test system: P388 leukemia ip, CD2F1 mice, survival T/C
Assay: NCI In Vivo Anticancer Drug Screen. Data for tumor model P388 Leukemia (intraperitoneal) in CD2F1 (CDF1) mice
Details: endpoint: median survival time, higher = longer survival
How it was run: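 Mice carrying the transplanted tumor received test compound or vehicle. Survival was recorded in each group, and the value is the treated-group measurement divided by that of the vehicle-treated control group.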

[1] = dose: 50.0 mg/kg/injection, schedule: Q01DX009 (ip), vehicle: Klucel (hydroxypropylcellulose) (HPC)
[2] = dose: 100.0 mg/kg/injection, schedule: Q01DX009 (ip), vehicle: Klucel (hydroxypropylcellulose) (HPC)
[3] = dose: 200.0 mg/kg/injection, schedule: Q01DX009 (ip), vehicle: Klucel (hydroxypropylcellulose) (HPC)
[4] = dose: 100.0 mg/kg/injection, schedule: Q01DX001 (ip), vehicle: saline
[5] = dose: 200.0 mg/kg/injection, schedule: Q01DX001 (ip), vehicle: saline
[6] = dose: 400.0 mg/kg/injection, schedule: Q01DX001 (ip), vehicle: saline
[7] = dose: 12.5 mg/kg/injection, schedule: Q01DX009 (ip), vehicle: saline with Tween-80
[8] = dose: 25.0 mg/kg/injection, schedule: Q01DX009 (ip), vehicle: saline with Tween-80
[9] = dose: 50.0 mg/kg/injection, schedule: Q01DX009 (ip), vehicle: saline with Tween-80
[10] = dose: 50.0 mg/kg/injection, schedule: Q01DX005 (ip), vehicle: saline with Tween-80
[11] = dose: 60.0 mg/kg/injection, schedule: Q01DX005 (ip), vehicle: saline with Tween-80
[12] = dose: 120.0 mg/kg/injection, schedule: Q01DX005 (ip), vehicle: saline with Tween-80
[13] = dose: 100.0 mg/kg/injection, schedule: Q01DX009 (ip), vehicle: saline with Tween-80
[14] = dose: 240.0 mg/kg/injection, schedule: Q01DX005 (ip), vehicle: saline with Tween-80
[15] = dose: 50.0 mg/kg/injection, schedule: Q01DX009 (ip), vehicle: suspension in saline
[16] = dose: 100.0 mg/kg/injection, schedule: Q01DX009 (ip), vehicle: suspension in saline
[17] = dose: 200.0 mg/kg/injection, schedule: Q01DX009 (ip), vehicle: suspension in saline

`COc1ccc2c(c1)CCC1=C2P(C)(=S)CC1` (stereo not given) was tested, and the T/C [1] was 101 % of control, the T/C [2] was 104 % of control and the T/C [3] was 106 % of control.

In the case of `O=c1ccnc2sccn12`, the T/C [4] is reported as 109 % of control, the T/C [5] is reported as 116 % of control and the T/C [6] is reported as 101 % of control.

In the case of `CCCCCC(CN(C)C)C(=O)/C=C/c1ccc(Cl)cc1` (stereo not given), the T/C [7] is reported as 95 % of control, the T/C [8] is reported as 96 % of control and the T/C [9] is reported as 113 % of control.

With `Cc1cc(C)cc(C(=O)NC(=C(NC(=O)c2cc(C)cc(C)c2)c2ccncc2)c2ccncc2)c1` (mixture of isomers) the T/C (dose: 12.5 mg/kg/injection, schedule: Q01DX005 (ip), vehicle: saline with Tween-80) was 96 % of control, the T/C (dose: 25.0 mg/kg/injection, schedule: Q01DX005 (ip), vehicle: saline with Tween-80) was 90 % of control and the T/C [10] was 86 % of control and 90 % of control.

`COC(C(=O)CN(C)C)(c1ccccc1)c1ccccc1` was tested, and the T/C (dose: 60.0 mg/kg/injection, schedule: Q01DX005 (ip), vehicle: saline) was 107 % of control, the T/C (dose: 120.0 mg/kg/injection, schedule: Q01DX005 (ip), vehicle: saline) was 99 % of control and the T/C (dose: 240.0 mg/kg/injection, schedule: Q01DX005 (ip), vehicle: saline) was 105 % of control.

With `CC1[C@@H]2C[C@@H]3O[C@@]34[C@H]3CCC5Cc6nc7c(nc6C[C@@]5(C)C3(O)CC(=O)[C@@]24CO[C@]12OC(C)(C)CC2O)CC1CC[C@@H]2C3=C[C@H]4O[C@@]5(O[C@@](C)(CO)C[C@@H]5O)C(C)[C@@]4(O)[C@]3(C)[C@@H](O)CC2[C@]1(C)C7` (stereo not given in full) the T/C (dose: 12.5 micrograms/kg/injection, schedule: Q01DX009 (ip), vehicle: saline + alcohol) was 107 % of control, the T/C (dose: 25.0 micrograms/kg/injection, schedule: Q01DX009 (ip), vehicle: saline + alcohol) was 109 % of control and the T/C (dose: 50.0 micrograms/kg/injection, schedule: Q01DX009 (ip), vehicle: saline + alcohol) was 114 % of control. For the same molecule, the T/C (dose: 100.0 micrograms/kg/injection, schedule: Q01DX009 (ip), vehicle: saline + alcohol) was 116 % of control.

In the case of `Nc1ccc2c(SCCCCSc3c4ccccc4nc4cc(N)ccc34)c3ccccc3nc2c1`, the T/C [11] is reported as 106 % of control and the T/C [12] is reported as 100 % of control.

In the case of `NC(Cc1ccc(Cl)cc1)c1nn[nH]n1` (stereo not given), the T/C [8] is reported as 99 % of control, the T/C [9] is reported as 99 % of control and the T/C [13] is reported as 101 % of control.

In the case of `COC(=O)Nc1cn2cc(C(=O)c3cccs3)ccc2n1`, the T/C [1] is reported as 113 % of control and the T/C [3] is reported as 151 % of control.

In the case of `CCOC(=O)Cc1csc(=S)n1CC`, the T/C [10] is reported as 98 % of control, the T/C (dose: 100.0 mg/kg/injection, schedule: Q01DX005 (ip), vehicle: saline with Tween-80) is reported as 98 % of control and the T/C (dose: 200.0 mg/kg/injection, schedule: Q01DX005 (ip), vehicle: saline with Tween-80) is reported as 98 % of control.

In the case of `COC(=O)CCCCCCCCCCCCC1C=CCC1` (stereo not given), the T/C [4] is reported as 100 % of control, the T/C [5] is reported as 104 % of control and the T/C [6] is reported as 104 % of control.

For `COc1cc2ccc3c[n+]4ccccc4cc3c2cc1OC`, the T/C (dose: 6.25 mg/kg/injection, schedule: Q01DX009 (ip), vehicle: Klucel (hydroxypropylcellulose) (HPC)) was 103 % of control and the T/C (dose: 12.5 mg/kg/injection, schedule: Q01DX009 (ip), vehicle: Klucel (hydroxypropylcellulose) (HPC)) was 108 % of control.

`COc1ccc(C2CC(=O)N(c3ncccn3)C(=O)C2)cc1` was tested, and the T/C (dose: 100.0 mg/kg/injection, schedule: Q04DX003 (ip), vehicle: saline) was 103 % of control, the T/C (dose: 200.0 mg/kg/injection, schedule: Q04DX003 (ip), vehicle: saline) was 94 % of control and the T/C (dose: 400.0 mg/kg/injection, schedule: Q04DX003 (ip), vehicle: saline) was 102 % of control.

In the case of `CC(C)N(c1ccc(O)c2ccccc12)C(C)C`, the T/C (dose: 100.0 mg/kg/injection, schedule: Q01DX001 (ip), vehicle: saline with Tween-80) is reported as 96 % of control, the T/C (dose: 200.0 mg/kg/injection, schedule: Q01DX001 (ip), vehicle: saline with Tween-80) is reported as 100 % of control and the T/C (dose: 400.0 mg/kg/injection, schedule: Q01DX001 (ip), vehicle: saline with Tween-80) is reported as 95 % of control.

In the case of `C#CCN(Cc1ccc2nc(N)[nH]c(=O)c2c1)c1ccc(C(=O)NC(CCC(=O)O)C(=O)O)cc1` (stereo not given), the T/C (dose: 12.5 mg/kg/injection, schedule: Q01DX005 (ip), vehicle: water) is reported as 103 % of control and 104 % of control and 97 % of control, the T/C (dose: 25.0 mg/kg/injection, schedule: Q01DX005 (ip), vehicle: water) is reported as 103 % of control and 104 % of control (2×) and the T/C (dose: 50.0 mg/kg/injection, schedule: Q01DX005 (ip), vehicle: water) is reported as 109 % of control and 120 % of control (2×). For the same molecule, the T/C (dose: 100.0 mg/kg/injection, schedule: Q01DX005 (ip), vehicle: water) was 117 % of control, the T/C (dose: 150.0 mg/kg/injection, schedule: Q01DX005 (ip), vehicle: alkali diluted with water) was 97 % of control and the T/C (dose: 200.0 mg/kg/injection, schedule: Q01DX005 (ip), vehicle: water) was 97 % of control.

In the case of `O=c1ccc2ccccc2o1`, the T/C (dose: 3.12 mg/kg/injection, schedule: Q01DX009 (ip), vehicle: saline with Tween-80) is reported as 101 % of control and 108 % of control and 94 % of control, the T/C (dose: 6.25 mg/kg/injection, schedule: Q01DX009 (ip), vehicle: saline with Tween-80) is reported as 100 % of control and 101 % of control and 110 % of control and the T/C [7] is reported as 103 % of control and 110 % of control (2×). The T/C (dose: 25.0 mg/kg/injection, schedule: Q01DX009 (ip), vehicle: Klucel (hydroxypropylcellulose) (HPC)) was 100 % of control and 105 % of control, the T/C [8] was 100 % of control and 110 % of control and 120 % of control and the T/C (dose: 25.0 mg/kg/injection, schedule: Q04HX002 (ip), vehicle: water) was 100 % of control. For the same molecule, the T/C [1] was 105 % of control and 106 % of control and 107 % of control, the T/C (dose: 50.0 mg/kg/injection, schedule: Q04HX002 (ip), vehicle: water) was 104 % of control and the T/C [2] was 102 % of control and 105 % of control and 108 % of control. For the same molecule, the T/C [13] was 103 % of control and 114 % of control, the T/C (dose: 100.0 mg/kg/injection, schedule: Q04HX002 (ip), vehicle: saline with Tween-80) was 91 % of control and the T/C (dose: 100.0 mg/kg/injection, schedule: Q04HX002 (ip), vehicle: water) was 100 % of control. For the same molecule, the T/C [3] was 119 % of control and 94 % of control, the T/C (dose: 200.0 mg/kg/injection, schedule: Q04HX002 (ip), vehicle: saline with Tween-80) was 59 % of control and the T/C (dose: 200.0 mg/kg/injection, schedule: Q04HX002 (ip), vehicle: water) was 101 % of control. The T/C (dose: 400.0 mg/kg/injection, schedule: Q04HX002 (ip), vehicle: saline with Tween-80) was 46 % of control.

`N#CC1=C(Nc2ccccc2Cl)SC(c2ccccc2O)NC1=O` (stereo not given) was tested, and the T/C [11] was 103 % of control, the T/C [12] was 102 % of control and the T/C [14] was 96 % of control.

`O=[N+]([O-])c1ccc(/C=C(/c2ccc([N+](=O)[O-])o2)S(=O)(=O)c2ccccc2)cc1` was tested, and the T/C [15] was 97 % of control, the T/C [16] was 103 % of control and the T/C [17] was 97 % of control.

For `[NH-]C(Cc1cnc[n-]1)C(=O)O.[NH-]C(Cc1cnc[n-]1)C(=O)O.[O]=[Mo]1[O][Mo](=[O])[O]1` (stereo not given), the T/C [15] was 99 % of control, the T/C [16] was 99 % of control and the T/C [17] was 99 % of control.

In the case of `S=C1SSC(=S)C1=C1C=CN(Cc2ccccc2)C=C1`, the T/C (dose: 25.0 mg/kg/injection, schedule: Q04DX002 (ip), vehicle: saline with Tween-80) is reported as 102 % of control, the T/C (dose: 50.0 mg/kg/injection, schedule: Q04DX002 (ip), vehicle: saline with Tween-80) is reported as 99 % of control and the T/C (dose: 100.0 mg/kg/injection, schedule: Q04DX002 (ip), vehicle: saline with Tween-80) is reported as 100 % of control.

For `Cc1ccc(OC/C=N\N=C(N)N)cc1C`, the T/C [11] was 101 % of control and the T/C [12] was 93 % of control.

`O=C(Nc1ccc(Cl)c([N+](=O)[O-])c1)Nc1nc2ccccc2s1` was tested, and the T/C (dose: 50.0 mg/kg/injection, schedule: Q01DX005 (ip), vehicle: Klucel (hydroxypropylcellulose) (HPC)) was 98 % of control, the T/C (dose: 100.0 mg/kg/injection, schedule: Q01DX005 (ip), vehicle: Klucel (hydroxypropylcellulose) (HPC)) was 86 % of control and the T/C (dose: 200.0 mg/kg/injection, schedule: Q01DX005 (ip), vehicle: Klucel (hydroxypropylcellulose) (HPC)) was 87 % of control.

With `NC(=O)c1cc([N+](=O)[O-])ccc1N=NN(CCCl)Cc1ccccc1` the T/C (dose: 100.0 mg/kg/injection, schedule: Q04DX003 (ip), vehicle: Klucel (hydroxypropylcellulose) (HPC)) was 111 % of control, the T/C (dose: 200.0 mg/kg/injection, schedule: Q04DX003 (ip), vehicle: Klucel (hydroxypropylcellulose) (HPC)) was 122 % of control and the T/C (dose: 400.0 mg/kg/injection, schedule: Q04DX003 (ip), vehicle: Klucel (hydroxypropylcellulose) (HPC)) was 162 % of control.

With `Cc1cc(=O)[nH]c(=O)n1CCCN(C)CCCn1c(C)cc(=O)[nH]c1=O` the T/C [11] was 99 % of control, the T/C [12] was 103 % of control and the T/C [14] was 102 % of control.
